“Also recorded” adds a separate entry of the source.
Experiments:
αSyn [1] = target: T1, αSyn (Homo sapiens, UniProt P37840); set-up: made in house; host or cells: E. coli; details: prior study (Toth et al 2014); cited from earlier work
αSyn [2] = target: T1, αSyn; set-up: made in house; host or cells: E. coli; details: prior study (Toth et al 2014); cited from earlier work; remark: listed apart in the source
[3] = tested on: H4 neuroglioma cells over-expressing αSyn; assay: Phagocytosis assay; type: cell-based, human; details: for phagocytosis restored, percent of that in cells with endogenous αSyn levels (control): phagocytosis inhibited by αSyn overexpression; for reversal of αSyn mediated inhibition of phagocytosis: 100 nM
Method: A human neuroglioma H4 cell-derived cell line stably over-expressing αSyn from a tetracycline inducible promoter was generated using the tet inducible TRex system (Invitrogen division of Life Technologies) and grown in serum-free X-VIVO media (Lonza Group, Basel, Switzerland). Cells were seeded in 96-well plates at densities yielding 75 to 90% confluency during the phagocytosis assay. The next day, compound was added along with 5 μg/ml tetracycline to induce αSyn overexpression. Cells were cultured overnight and the next day were fed […] red fluorescent beads (Invitrogen, Carlsbad, CA) for 90 minutes at a cell-to-bead ratio of 1:10. Plates were gently washed with 100 μl/well media twice, fixed and stained with HEMA3 (Thermo Fisher, Waltham, MA). Plates were dried overnight and read on an ArrayScan (Thermo Fisher, Waltham, MA). As the HEMA3 stain absorbs light, the internalized beads are less fluorescent than the outside beads. Tet/non-tet and 484228 samples were run on each plate.

[4] = tested on: H4 neuroglioma cells over-expressing αSyn; details: earlier report; cited from earlier work
αSyn [5] = target: T1, αSyn; assay: αSyn fibrillization assay (Thioflavin T fluorescence); type: biochemical; set-up: made in house; host or cells: E. coli BL21(DE3), pET-21d; details: compound at 300 μM, 70 μM αSyn, vs 0.5% DMSO control
Method: Fibrillization assays. Prior to each aggregation assay, purified αSyn at 5 mg/mL was treated with 6M guanidine and dialyzed 36 hours in a 3500 MW cutoff Slide-A-lyzer with three changes of 20 mM sodium phosphate and 100 mM NaCl pH 7.4 buffer. αSyn was centrifuged at 130,000 g for 40 minutes in a Beckman Ultracentrifuge to remove seeding species and supernatant used for assays. For initial testing, 60 mM compound in DMSO was diluted to 300 μM in 0.5% DMSO and controls contained equivalent DMSO concentrations. Assay samples contained 20 μM Thioflavin T, filtered through a 0.45 μm Acrodisc filter prior to each assay, 70 μM αSyn in 20 mM sodium phosphate and 100 mM NaCl pH 7.4. One teflon bead, (0.125″ PTFE, Grade 2 polished) was placed in each well of a 96 well black with clear bottom assay plate (Corning) in a total volume of 500 μL. The plate was sealed with Mylar and parafilm, placed at 37° C. in a Tecan F200Pro Plate Reader and shaken at an amplitude of 6 mm for 120 hours continuously except for a brief time during reading of the plate. Thioflavin T fluorescence was detected by excitation at 440 nm and reading emissions at 485 nm each 60 minutes throughout the assay. To generate αSyn seeds for the seeding assays, αSyn at 10 mg/mL was incubated with stirring at 43° C. for 24 hours followed by exhaustive sonication. 1% (by mass) of seeds were added to the fibrillization assay. Samples were plated in quadruplicate, and the replicates averaged for each experiment for plotted data. Data were analyzed in Excel using XL-fit sigmoidal model #600 and when normalized, comparing fluorescence values at 50 hours for compounds as a percentage of DMSO control.
α-Syn for the Fibrillization assay. Wildtype human αSyn was produced from a pET-21d plasmid (Millipore, Burlington, MA) in E. coli BL21(DE3) cells induced by addition of 1 mM […] and incubated at 16° C. overnight. Cells were harvested by centrifugation at 4,000×g for 10 minutes and stored at −80° C. Frozen cells expressing αSyn protein were resuspended in 50 mM Tris, pH 7.5, 1 mM TCEP, 1 mM EDTA, and 1 mM L-Methionine and lysed using a microfluidizer. Lysate was centrifuged at 7000×g for 0.5 hours at 21° C. The supernatant was boiled in a water bath for 15 minutes, cooled on ice and centrifuged at 45,000 g for 30 min. The supernatant was filtered through a 0.2 μm Corning filter and subjected to ion exchange chromatography using a Capto ImpRes Q (GE Healthcare, Upssala, Sweden) anion exchange (IEX) column at ambient temperature. The column was eluted with a gradient of 100 column volumes from 0 to 1M NaCl using an AKTA Explorer 100 Liquid Chromatography System (GE Healthcare, Uppsala, Sweden). Pure αSyn fractions were desalted to 50 mM KPO4, pH 7.5 and 50 mM NaCl using PD-10 columns (GE Healthcare, Chicago, IL) and concentrated to 5 mg/mL or 10 mg/ml (3K MWCO, Amicon Ultra, Millipore, Burlington, MA).
Statistical Analysis of compound activity in Fibrillization assays. For the analyses of compound activity in the αSyn fibrillization assay, the relative fluorescence unit (RFU) data obtained from compounds were compared to those of DMSO, to identify those that are statistically different from DMSO at various time points. Each experiment contained 4 replicates of each compound and of DMSO control. […] A repeated measures analysis of variance was performed on logarithmic transformed data using a linear mixed effects model which included Compound, Time, Replicate (Compound) and Compound*Time. The covariance structure across time that minimized the corrected Akaike Information Criterion (AICC) was used and the Kenward and Roger method was used to determine the appropriate degrees of freedom. Each compound mean was compared to the DMSO mean using Bonferroni multiplicity adjusted t-tests. Statistical analyses were conducted using the MIXED procedure in SAS 9.1 (SAS Institute Inc. Cary, NC, USA). Statistical significance refers to p-value<0.05.

Row | SMILES | phagocytosis restored, percent of that in cells with endogenous αSyn levels (control) [3] [%] | reversal of αSyn mediated inhibition of phagocytosis [3] | impact on αSyn fibrillization (thioflavin fluorescence signal) (αSyn [5]) | other results
1 | O=S(=O)(Nc1ccc(F)cc1)c1ccccc1 [Compound 484228, N-(4-fluorophenyl)benzenesulfonamide] | ≤ 80 | – | – | reversal of αSyn over-expression mediated neurodegeneration (αSyn [1]): protective activity; impact on aggregation of the recombinant protein (αSyn [2]): without impact on aggregation; restoration of phagocytosis in the face of αSyn overexpression [4]: restored normal phagocytosis
2 | NC(=O)[C@H](Cc1c[nH]cn1)NC(=O)c1ccccn1 [Compound 573418, (S)-N-(1-amino-3-(1H-imidazol-4-yl)-1-oxopropan-2-yl)picolinamide] | – | complete reversal | – | –
3 | NC(=O)[C@@H](NC(=O)c1csc(-c2ccccc2)n1)C1CCCCC1 [Compound 573419, (S)-N-(2-amino-1-cyclohexyl-2-oxoethyl)-2-phenylthiazole-4-carboxamide] | – | complete reversal | – | –
4 | CNC(=O)C[C@H](N)Cc1cccc2ccccc12 [Compound 573416, (R)-3-amino-N-methyl-4-(naphthalen-1-yl)butanamide] | – | – | no impact on αSyn fibrillization | –
5 | CNC(=O)CC(N)c1ccc(-c2ccccc2)cc1 (stereo not drawn) [Compound 581674, 3-([1,1′-biphenyl]-4-yl)-3-amino-N-methylpropanamide] | 100 | – | inhibit fibrillization; also recorded: blocks αSyn fibrillization | –

Reference: patent US12553889B2, “Small molecules targeting the intrinsically disordered structural ensemble of α-synuclein protect against diverse α-synuclein mediated dysfunctions” (The Regents of the University of California, priority 2019, dated 2026)
